Experimental data from patent US10898583B2, “Harnessing quantum dots to study, visualize, and promote immune tolerance” (University of Maryland, College Park, priority 2016, dated 2021).
Where no end group is shown, it is not given here.

Experiments:
[1] = tested on: transgenic 2D2 CD4+ T cells; test: 2D2 T cell proliferation (proliferation dye dilution) in DC co-culture; type: cell-based, mouse; conditions: DCs treated with CpG; 17 or 52 peptides per QD; 72 hours
Description: Stained cells were analyzed by flow cytometry.

[2] = tested on: experimental autoimmune encephalomyelitis (EAE); test: EAE induction, MOG-QD treatment and monitoring; type: in vivo, C57BL/6 mice; conditions: single s.c. injection day 2, through day 21
Description: C57BL/6 mice (female, 10-12 weeks) were induced with EAE following a defined protocol from Hooke Labs. Briefly, mice were injected s.c. with an emulsion of MOG and complete Freund's adjuvant (CFA) at the upper and lower back on day 0. Pertussis toxin was also administered intraperitoneally 2 and 24 hours after MOG/CFA injection. Beginning at day 7, mice were weighed to detect changes from day 0 body weight (a symptom of disease) and scored for disease severity with respect to paralysis. A standard clinical scoring rubric was used: 0—no symptoms, 1—limp tail, 2—weakness of hind legs, 3—hind limb paralysis, 4—hind limb paralysis and partial front limb paralysis, 5—moribund.^[6, 7, 15]
Mice induced with EAE were randomly divided into groups of 8-10 mice each. A control group was left untreated in each experiment. In one experiment, additional groups were treated by s.c. injection at the tailbase with 0.2 nanomoles QDs, 70 μg MOG, 70 μg CTRL peptide on 0.2 nanomoles QDs (100:1), or 70 μg MOG peptide on 0.2 nanomoles QDs (100:1). Similar experiments contained two treatment groups: 14.3 μg MOG on 0.4 nanomoles QDs (17:1) or 73 μg MOG on 0.2 nanomoles QDs (52:1). The final experiment design contained three treatment groups: 70 μg MOG on 0.5 nanomoles QDs (25:1), 70 μg MOG on 0.4 nanomoles QDs (52:1), or 70 μg MOG on 0.3 nanomoles QDs (65:1).

Sequence | 2D2 T cell proliferation [1] | disease progression (clinical score) ([2]; 100:1, 70 μg peptide on 0.2 nanomoles QDs or component controls) | disease incidence ([2]; 100:1 or component controls)
HHHHHSAAAAAGISQAVHAAHAEINEAGR (not fully specified) [free CTRL peptide] | neither CTRL-QDs nor free CTRL peptide caused proliferation |  | 
HHHHHSAAAAAGMEVGWYRSPFSRVVHLYRNGK [free MOG] | equivalent | none of the groups except MOG-QDs caused significant differences in clinical scores | no differences in disease incidence
